Reference: US10590422B2, “Anticancer therapeutic intervention” (PHYZAT BIOPHARMACEUTICALS, LDA., priority 2017, dated 2020)

What was measured:
[1] = system: LAT1; test: LAT1 activity: [^14C]-L-leucine uptake in fibrosarcoma HT-1080 cells after LAT1 gene silencing; assay type: cell-based, human; settings: 5 nM siRNA, treatment 6 h, at 48 h, 0.4% Lipofectamine 2000, FIG. 8A
Method: Cells were plated in 24-well plates (Sarstedt, Germany) and grown until confluence was reached. On the day of the experiment, cell culture medium was aspirated and cells were preincubated for 15 min in Hanks' medium (NaCl 140 mM, KCl 5 mM, MgSO4.7H2O 0.8 mM, K2HPO4 0.33 mM, KH2PO4 0.44 mM, MgCl2.6H2O 1 mM, CaCl2) 0.025 mM, Tris-HCl 9.75 mM, pH 7.4). Uptake was initiated by addition of Hanks' medium with 0.25 μM [^14C]-L-leucine in the absence and in the presence of 3 mM unlabeled L-leucine. During preincubation and incubation cells were continuously shaken and maintained at 37° C. Uptake was terminated after 1 min by rapid removal of uptake solution by means of a vacuum pump connected to a Pasteur pipette, followed by a rapid wash with Hanks' medium. Subsequently, cells were solubilized in 0.1% vol/vol Triton X-100 (dissolved in 5 mM Tris-HCl, pH 7.4), and radioactivity was measured by liquid scintillation counting.
(§1) Cells were plated in 24-well (Sarstedt, Germany) or 6-well plates (Sarstedt, Germany) or 96-well plates with black walls clear bottom (BD Biosciences, USA) and incubated 24 h under normal growth conditions. siRNAs against LAT1 and transfection agent were diluted at desired concentrations and mixed according to transfection agent manufacturer's instructions. The mixture was incubated 20 min at RT for siRNA-complex formation, after which it was added to the cells and incubated at 37° C., 5% CO2. After the incubation period, serum and antibiotic was restored and cells were further incubated at normal conditions for the desired time points until evaluation of LAT1 activity or LAT1 expression (immunoblotting and RT-qPCR).

[2] = system: LAT1 mRNA; test: LAT1 gene expression (RT-qPCR) after LAT1 gene silencing in human colon cancer HTC-116 cells; assay type: cell-based; settings: treatment 6 h
Method: (§2) SK-HEP-1, T24, HT-1080 and HCT-116 cell lines were maintained in a humidified atmosphere of 5% CO2 at 37° C. SK-HEP-1 cells were grown in RPMI-1640 (Sigma, St. Louis, Mo.) supplemented with 20% fetal bovine serum (FBS) (Gibco, UK), 100 U/mL penicillin G, 0.25 μg/mL amphotericin B, 100 μg/mL streptomycin (Gibco, UK), 25 mM sodium bicarbonate (Merck, Germany) and 25 mM N-2-hydroxyethylpiperazine-N′-2-ethanosulfonic acid (HEPES) (Sigma, St. Louis, Mo.). T24 and HT-1080 cells were grown, respectively, in Dulbecco's Modified Eagle's Medium (DMEM)—high glucose (Sigma, St. Louis, Mo.) and DMEM—low glucose (Sigma, St. Louis, Mo.), supplemented with 10% FBS (Gibco, UK), 100 U/mL penicillin G, 0.25 μg/mL amphotericin B, 100 μg/mL streptomycin (Gibco, UK), 25 mM sodium bicarbonate (Merck, Germany) and 25 mM HEPES (Sigma, St. Louis, Mo.). HCT-116 cells were grown in McCoy's 5A (Sigma, St. Louis, Mo.) supplemented with 10% FBS (Gibco, UK), 100 U/mL penicillin G, 0.25 μg/mL amphotericin B, 100 μg/mL streptomycin (Gibco, UK), 25 mM sodium bicarbonate (Merck, Germany) and 25 mM HEPES (Sigma, St. Louis, Mo.). For all cell lines the medium was changed every 2 days, and cells reached confluence 3-4 days after initial seeding. For subculturing, cells were dissociated with 0.25% trypsin-ethylenediaminetetraacetic acid (EDTA) (Sigma, St. Louis, Mo.), split 1:15 or 1:20 and subcultured in a 21-cm^2 growth area (Sarstedt, Germany).
(§3) Total RNA was isolated and purified using the SV Total RNA Isolation System (Promega, USA) according to manufacturer's instructions. RNA quality and concentration were verified in the NanoDrop ND1000 Spectrophotometer (Thermo Scientific, USA), and RNA integrity and genomic DNA contamination were evaluated by agarose gel electrophoresis. Total RNA (1 μg) was converted into cDNA using the Maxima Scientific First Strand cDNA Synthesis Kit for RT-qPCR (Thermo Scientific, USA), according to instructions. The following protocol was used: 1st step, 10 min at 25° C.; 2nd step, 15 min at 50° C.; 3rd step, 5 min at 85° C. cDNA was used for qPCR analysis using Maxima SYBR Green qPCR Master Mix (Thermo Scientific, USA) in the StepOnePlus instrument (Applied Biosystems, USA). QuantiTect Primer Assay for LAT1 and ASCT2 and for the endogenous control gene GAPDH (Quiagen, Germany) were used. The qPCR reaction was performed in 96-well PCR plates (Sarstedt, Germany) as follows: one cycle of 10 min at 95° C., followed by 40 PCR cycles at 95° C. 15 s and 60° C. 60 s. […] No template controls were always evaluated for each target gene. Quantification cycle (Cq) values were generated automatically by the StepOnePlus 2.3 Software and the ratio of the target gene was expressed in comparison to the endogenous control gene GAPDH.
as §1

[3] = system: ASCT2 mRNA; test: ASCT2 gene expression (RT-qPCR) after ASCT2 gene silencing in human colon cancer HTC-116 cells; assay type: cell-based; settings: treatment 6 h
Method: as §2, §3
as §1, with “ASCT2” for “LAT1”

Row | Substance | [^14C]-L-leucine (0.25 μM) uptake at initial rate of uptake (1 min) [1] | LAT1 mRNA relative abundance ([2]; 5, 25 and 45 nM, concentration dependent, 0.5% Lipofectamine 2000, Lipofectamine RNAiMAX or Injectin, at 72 h, FIGS. 10A and 10B) | LAT1 mRNA relative abundance ([2]; 5 or 25 nM siRNA, at 24 h or 48 h, 0.5% Lipofectamine 2000, FIGS. 9A and 9C) | LAT1 mRNA relative abundance ([2]; 72 h, 0.17% Lipofectamine 2000 or 0.1% Injectin, FIG. 19A) | ASCT2 mRNA relative abundance ([3]; 5 or 25 nM siRNA, at 24 h or 48 h, 0.5% Lipofectamine 2000, FIGS. 9B and 9C) | ASCT2 mRNA relative abundance ([3]; 72 h, 0.17% Lipofectamine 2000 or 0.1% Injectin, FIG. 20A)
1 | 58/387/388 (sense CUUCGCCACCUACCUGCUCAATT; antisense UUGAGCAGGUAGGUGGCGAAGTT; siRNA; sugars by position and backbone not given here; further chemistry not fully specified) | decreased | decreased | decreased | significantly decreased |  | 
2 | 278/403/404 (sense UGCCACGGUCGCCUCUGAGAATT; antisense UUCUCAGAGGCGACCGUGGCATT; siRNA; sugars by position and backbone not given here; further chemistry not fully specified) |  |  |  |  | decreased | significantly decreased
